Some test systems named below: A549; ACHN; EKVX; HOP-62; HOP-92; K562; Malme-3M; NCI-H226; NCI-H23; OVCAR-4; OVCAR-5; OVCAR-8; SF-539; SK-MEL-28; SNB-19; SW-620; TK-10; U-251; UACC-257; UO-31.
Assay in all cases: NCI tumour cell line growth inhibition, 48 h

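Cultured in 96-well plates, cells were exposed to test compound for 48 hours across five concentrations. Here, GI50 denotes the concentration required for 50% inhibition of growth.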 Active and inactive are the calls of the source. Rule as the data show it: active = GI50 up to about 1.1 µM and inactive = higher.

`CC(=NNC(=S)Nc1ccccc1C)c1cccc(C(C)=NNC(=S)Nc2ccccc2C)n1`: the GI50 in the assay on A549 was 24.2 µM (inactive); with ACHN, 4.15 µM (inactive); in the assay with EKVX, 76 µM (inactive); in the assay on HOP-62, 6.56 µM (inactive); in the assay on HOP-92 it was 11.4 µM (inactive); in the assay on K562, 31.4 µM (inactive). In addition, the GI50 in the assay on Malme-3M is 15.5 µM (inactive); in the assay on NCI-H226, 9.73 µM (inactive); in the assay on NCI-H23 it was 65.3 µM (inactive); in the assay on OVCAR-4, 0.321 µM (active); in the assay with OVCAR-5, > 100 µM (inactive); in the assay with OVCAR-8, 17.4 µM (inactive). The GI50 in the assay with SF-539 is 6.68 µM (inactive); in the assay with SK-MEL-28, 13 µM (inactive); in the assay with SNB-19, > 100 µM (inactive); in the assay on SW-620 it was 57.5 µM (inactive); in the assay on TK-10, 23.7 µM (inactive); with U-251, 34.4 µM (inactive). Moreover, the GI50 in the assay with UACC-257 is 27.6 µM (inactive); in the assay with UO-31, 45.9 µM (inactive).

`CC(=O)NNc1nc(C)c(C(/C=C/c2ccc(Cl)cc2)=N\NS(=O)(=O)c2ccc(C)cc2)s1`: the GI50 in the assay on A549, with ACHN, with EKVX, with HOP-62, in the assay on HOP-92 and in the assay on K562 was > 100 µM (inactive) in each case. Also, the GI50 with Malme-3M, in the assay on NCI-H226, with NCI-H23, in the assay on OVCAR-4, in the assay on OVCAR-5 and with OVCAR-8 was > 100 µM (inactive) throughout. In addition, the GI50 in the assay on SF-539, in the assay on SK-MEL-28, with SNB-19, in the assay on SW-620, with TK-10 and in the assay on U-251 was > 100 µM (inactive) throughout. Further, the GI50 with UACC-257 and with UO-31 was > 100 µM (inactive) in each case.

As to `COc1ccc2nc3c([N+](=O)[O-])ccc(NCCN(C)C)c3c(N)c2c1`, the GI50 is 1.55 µM (inactive) with A549; 1.09 µM (active) in the assay with ACHN; 1.71 µM (inactive) in the assay with EKVX; 1.66 µM (inactive) with HOP-62; 0.695 µM (active) in the assay on HOP-92; 0.223 µM (active) with K562. Besides, the GI50 in the assay with Malme-3M was 1.34 µM (inactive); in the assay on NCI-H226, 1.97 µM (inactive); with NCI-H23 it was 1.69 µM (inactive); with OVCAR-4, 1.24 µM (inactive); with OVCAR-5 it was 1.52 µM (inactive); in the assay with OVCAR-8, 1.66 µM (inactive). Moreover, the GI50 was 1.56 µM (inactive) in the assay with SF-539; 2.14 µM (inactive) with SK-MEL-28; 1.84 µM (inactive) with SNB-19; 0.181 µM (active) in the assay on SW-620; 1.6 µM (inactive) with TK-10; 1.66 µM (inactive) with U-251. For the same compound, the GI50 in the assay with UACC-257 is 1.91 µM (inactive); in the assay on UO-31, 1.35 µM (inactive).

For the compound `COC(=O)CCC(NC(=S)N/N=C(\C)c1nccs1)C(=O)OC` (centres undefined), the GI50 in the assay on A549 was 74.8 µM (inactive); in the assay with ACHN, 47.6 µM (inactive); in the assay on EKVX, 67.6 µM (inactive); in the assay on HOP-62, 48.8 µM (inactive); in the assay with HOP-92, > 100 µM (inactive); in the assay with K562, 16.2 µM (inactive). Moreover, the GI50 in the assay on Malme-3M is > 100 µM (inactive); with NCI-H226, 53.7 µM (inactive); with NCI-H23, > 100 µM (inactive); in the assay on OVCAR-4 it was 45.8 µM (inactive); in the assay on OVCAR-5, 53 µM (inactive); with OVCAR-8, 68.4 µM (inactive). Also, the GI50 in the assay on SF-539 was > 100 µM (inactive); in the assay on SK-MEL-28, > 100 µM (inactive); with SNB-19, > 100 µM (inactive); with SW-620 it was 47.5 µM (inactive); with TK-10, > 100 µM (inactive); in the assay on U-251, 78.2 µM (inactive). For the same compound, the GI50 in the assay on UACC-257 was > 100 µM (inactive); in the assay with UO-31 it was 49.3 µM (inactive).

Regarding `CSc1ccc2c(cc1=O)[C@@H](NC(=O)c1cccc([N+](=O)[O-])c1)CCc1cc(O)c(O)c(O)c1-2`, the GI50 in the assay with A549 is 53.6 µM (inactive); with ACHN, > 100 µM (inactive); with EKVX, 50.9 µM (inactive); with HOP-62, > 100 µM (inactive); with HOP-92 it was > 100 µM (inactive); with K562, 26.6 µM (inactive). Moreover, the GI50 with Malme-3M is 81.3 µM (inactive); with NCI-H226, 24.2 µM (inactive); with NCI-H23 it was 33 µM (inactive); in the assay with OVCAR-4 it was 50 µM (inactive); in the assay with OVCAR-5, > 100 µM (inactive); with OVCAR-8, 66.5 µM (inactive). In addition, the GI50 in the assay on SF-539 is 26.2 µM (inactive); with SK-MEL-28, > 100 µM (inactive); with SNB-19, > 100 µM (inactive); in the assay with SW-620 it was 23.5 µM (inactive); with TK-10, > 100 µM (inactive); in the assay with U-251 it was 22.8 µM (inactive). Further, the GI50 with UACC-257 is 87.9 µM (inactive); with UO-31, > 100 µM (inactive).

As for `C/C(=N/NC(=S)Nc1ccc([N+](=O)[O-])cc1)c1cccc(/C(C)=N\NC(=S)Nc2ccc([N+](=O)[O-])cc2)n1`, the GI50 is 0.594 µM (active) in the assay on A549; 0.126 µM (active) in the assay with ACHN; 0.658 µM (active) with EKVX; 0.752 µM (active) in the assay with HOP-62; 0.782 µM (active) in the assay with HOP-92; 0.569 µM (active) in the assay with K562. The GI50 was 0.515 µM (active) with Malme-3M; 0.193 µM (active) with NCI-H226; 0.877 µM (active) in the assay with NCI-H23; 0.959 µM (active) in the assay on OVCAR-4; 2.29 µM (inactive) in the assay with OVCAR-5; 0.329 µM (active) in the assay with OVCAR-8. Besides, the GI50 with SF-539 was 0.458 µM (active); in the assay on SK-MEL-28, > 100 µM (inactive); in the assay on SNB-19, 1.33 µM (inactive); in the assay with SW-620, 0.364 µM (active); in the assay with TK-10, 0.577 µM (active); in the assay with U-251 it was 0.547 µM (active). The GI50 with UACC-257 is 1.09 µM (active); with UO-31, 0.382 µM (active).

In the case of `COc1ccc(C(SCCO)(c2ccccc2)c2ccc(OC)cc2)cc1`, the GI50 with A549 is 11 µM (inactive); in the assay with ACHN, 16 µM (inactive); in the assay on EKVX it was 13.2 µM (inactive); with HOP-62, 15.8 µM (inactive); in the assay on HOP-92 it was 14.6 µM (inactive); in the assay on K562, 16.7 µM (inactive). The GI50 is 16.4 µM (inactive) with Malme-3M; 13.6 µM (inactive) with NCI-H226; 18.7 µM (inactive) in the assay with NCI-H23; 15.8 µM (inactive) in the assay on OVCAR-4; 15.2 µM (inactive) in the assay with OVCAR-5; 19.2 µM (inactive) in the assay with OVCAR-8. Besides, the GI50 in the assay on SF-539 is 14.7 µM (inactive); in the assay with SK-MEL-28 it was 16.3 µM (inactive); in the assay on SNB-19 it was 8.26 µM (inactive); in the assay with SW-620, 15.3 µM (inactive); in the assay on TK-10, 18.1 µM (inactive); with U-251, 4.46 µM (inactive). In addition, the GI50 in the assay on UACC-257 is 14.7 µM (inactive); in the assay on UO-31 it was 17.6 µM (inactive).

On to `CC(=O)OC1C(O)COC(O[C@H]2CC[C@]34C[C@]35CC[C@]3(C)C([C@@]6(C)CC[C@@H](C(C)(C)O)O6)[C@@H](O)C[C@@]3(C)C5C[C@H](OC3OCC(O)C(O)C3O)[C@H]4C2(C)C)C1OC1OCC(O)C(O)C1O` (some centres undefined), for which the GI50 in the assay on A549, in the assay with ACHN, in the assay with EKVX, in the assay with HOP-62, with HOP-92 and in the assay on K562 was > 100 µM (inactive) throughout. The GI50 in the assay with Malme-3M, in the assay on NCI-H226, with NCI-H23, in the assay on OVCAR-4, with OVCAR-5 and with OVCAR-8 was > 100 µM (inactive) each time. Further, the GI50 in the assay on SF-539, in the assay with SK-MEL-28, with SNB-19, in the assay with SW-620, in the assay on TK-10 and in the assay on U-251 was > 100 µM (inactive) in each case. Also, the GI50 in the assay on UACC-257 and in the assay on UO-31 was > 100 µM (inactive) in each case.

Take `Clc1cc2ns[s+]c2cc1Cl`: the GI50 with A549 is 56.9 µM (inactive); in the assay with ACHN it was 12.4 µM (inactive); in the assay on EKVX it was 81.8 µM (inactive); in the assay on HOP-62, 31.8 µM (inactive); in the assay on HOP-92, 36.1 µM (inactive); with K562, 4.55 µM (inactive). Further, the GI50 is > 100 µM (inactive) with Malme-3M; > 100 µM (inactive) with NCI-H226; 73.8 µM (inactive) in the assay on NCI-H23; > 100 µM (inactive) in the assay on OVCAR-4; > 62.7 µM (inactive) in the assay on OVCAR-5; > 56.5 µM (inactive) in the assay with OVCAR-8. In addition, the GI50 in the assay on SF-539 was 36.6 µM (inactive); in the assay on SK-MEL-28 it was > 81.8 µM (inactive); in the assay on SNB-19, > 74.8 µM (inactive); in the assay with SW-620, 32.8 µM (inactive); in the assay with TK-10 it was > 44.9 µM (inactive); in the assay on U-251, > 100 µM (inactive). For the same compound, the figures for the GI50 with UACC-257 and with UO-31 were > 86.3 µM (inactive) and 28.6 µM (inactive), respectively.

As for `Oc1cc(-c2ccccn2)nc2cc(F)ccc12`, the GI50 in the assay with A549 is 46 µM (inactive); in the assay with ACHN, > 100 µM (inactive); with EKVX, 42.9 µM (inactive); in the assay on HOP-62 it was > 100 µM (inactive); with HOP-92, 48.2 µM (inactive); in the assay on K562, 44.9 µM (inactive). The GI50 was 90.2 µM (inactive) in the assay with Malme-3M; > 100 µM (inactive) with NCI-H226; > 100 µM (inactive) with NCI-H23; > 100 µM (inactive) in the assay with OVCAR-4; > 100 µM (inactive) with OVCAR-5; > 100 µM (inactive) in the assay on OVCAR-8. Also, the GI50 with SF-539 was 58.6 µM (inactive); with SK-MEL-28 it was > 100 µM (inactive); in the assay with SNB-19, > 100 µM (inactive); in the assay on SW-620, 36.6 µM (inactive); with TK-10, > 100 µM (inactive); in the assay with UACC-257 it was > 100 µM (inactive). For the same compound, the GI50 in the assay with UO-31 is > 100 µM (inactive).

(Values after ChEMBL document CHEMBL1201862, “PubChem BioAssay data set” (2004).)
